From paper PMC12530843, “Identification of a New Interesting BAG3 Modulator Able to Disrupt Cancer‐Related Pathways” (Chemmedchem, 2025)
Entries after “also recorded” stand apart in the source; their conditions may differ.

Experiments:
[1] = target: T1, BAG3 full length (Homo sapiens, UniProt O95817); experiment: SPR binding on full-length BAG3; details: Biacore T200, 25 °C, 1:1 model; for Kd: read-out: BAG3 FULL KD ± SD
T1 construct: purchased Novus Biologicals (Littleton, Colorado)
Procedure: (§1) Recombinant human BAG3 protein (Bcl2‐associated athanogene 3) was obtained from Novus Biologicals (Littleton, Colorado), while the BAG3 domain (BAG3‐BD) was sourced from ARETA International S.r.l. (Gerenzano, Italy). We used (Z)‐ethyl 2‐(5‐(3,4‐dihydroxybenzylidene)‐2,4‐dioxothiazolidin‐3‐yl)acetate (LK4), a BAG3 inhibitor previously identified by our group.^[ [13] ^] SPR spectroscopy was performed using a Biacore T200 optical biosensor with CM5 sensor chips (Cytiva, Marlborough, USA) to assess the affinity of synthesized molecules for BAG3 and BAG‐BD. BAG3 and BAG‐BD were immobilized on CM5 sensor chip using standard amine‐coupling protocol.^[ [15] ^, [42] ^, [43] ^] BAG3 protein (0.067 μg μL^−1 in 10 mM CH3COONa, pH 4.5) was immobilized at a flow rate of 10 μL min^−1, achieving a surface density of 14 kRU, while BAG3‐BD (0.38 μg μL^−1 in 10 mM CH3COONa, pH 4.5) reached a density of 4 kRU. For the experiments, BAG3 and BAG‐BD surfaces, as well as an unmodified reference surface, were prepared for simultaneous analysis. Compounds 1–10 and LK4 were initially dissolved to 10 mM in 100% DMSO, then diluted 1:20 (v/v) in PBS‐P buffer (0.2 M phosphate buffer, 27 mM KCl, 1.37 M NaCl, 0.5% surfactant P20) resulting in a final DMSO concentration of 5.0%. The compounds were injected in a concentration series (1:2 dilution, 10 different concentrations) ranging from 0 to 100 μM, using 96‐well plates. SPR experiments were conducted at 25 °C with a flow rate of 20 μL min^−1, featuring a 90 s association phase followed by a 400 s dissociation phase. Changes in mass, recorded as resonance units (RU), were used to quantify binding responses, while K D values were determined using Biaevaluation software by globally fitting the double‐referenced association and dissociation data to a 1:1 interaction model. (See Figure S43–S56, Supporting Information).

[2] = target: T2, BAG3-BD (Homo sapiens, UniProt O95817); experiment: SPR binding on BAG3 BAG domain; details: Biacore T200, 25 °C, 1:1 model; for Kd: read-out: BAG3–BD KD ± SD
T2 construct: the BAG3 domain (BAG3‐BD) was sourced from ARETA International S.r.l; (Gerenzano, Italy); purchased ARETA International S.r.l
T2 sequence (O95817 421-498 limits assumed): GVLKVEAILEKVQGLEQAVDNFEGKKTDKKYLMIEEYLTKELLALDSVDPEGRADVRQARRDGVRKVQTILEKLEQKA
Procedure: as §1

[3] = system: HeLa cells; design: method as in PMID 29926854; details: reported value; read-out: IC50 in HeLa cell line; cited from earlier work

T1 sequence (O95817 whole entry): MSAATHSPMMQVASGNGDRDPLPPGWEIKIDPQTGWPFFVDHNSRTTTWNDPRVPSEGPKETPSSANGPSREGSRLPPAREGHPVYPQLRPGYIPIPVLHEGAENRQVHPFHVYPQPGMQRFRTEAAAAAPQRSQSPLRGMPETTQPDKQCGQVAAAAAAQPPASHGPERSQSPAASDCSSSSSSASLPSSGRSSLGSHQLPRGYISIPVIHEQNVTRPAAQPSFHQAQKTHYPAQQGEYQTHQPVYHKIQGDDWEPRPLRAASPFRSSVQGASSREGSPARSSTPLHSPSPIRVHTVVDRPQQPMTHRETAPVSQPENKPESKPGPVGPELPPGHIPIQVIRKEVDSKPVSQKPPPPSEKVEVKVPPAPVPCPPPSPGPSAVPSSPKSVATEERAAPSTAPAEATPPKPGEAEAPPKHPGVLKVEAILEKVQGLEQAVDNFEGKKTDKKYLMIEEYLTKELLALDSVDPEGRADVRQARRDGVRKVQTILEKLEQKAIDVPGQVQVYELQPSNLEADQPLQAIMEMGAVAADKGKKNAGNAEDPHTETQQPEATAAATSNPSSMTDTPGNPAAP

Compound	Kd [1]	Kd [2]	BAG3–BD KD ± SD [2]	BAG3 FULL KD ± SD [1]	IC50 [3]
Nc1ccc(C(=O)OCc2cn(Cc3cccc4ccccc34)nn2)cc1Br [Compound 10, (1‐(Naphthalen‐1‐ylmethyl)‐1H‐1,2,3‐triazol‐4‐yl)methyl 4‐amino‐3‐bromobenzoate]				did not show a satisfactory binding; also recorded: No binding	
Cc1cc(C)n(-c2cccc(Cn3cc(COC(=O)c4ccc(N)c(Br)c4)nn3)c2)n1 [Compound 9, (1‐(3‐(3,5‐Dimethyl‐1H‐pyrazol‐1‐yl)benzyl)‐1H‐1,2,3‐triazol‐4‐yl)methyl 4‐amino‐3‐bromobenzoate]				did not show the ability to bind; also recorded: No binding	
O=C(OCc1cn(Cc2ccc3ccccc3n2)nn1)c1ccnc(Cl)c1 [Compound 6, (1‐(Quinolin‐2‐ylmethyl)‐1H‐1,2,3‐triazol‐4‐yl)methyl 2‐chloroisonicotinate]	24 ± 4.6 µM	2.78 ± 0.88 µM			
Cc1cc(C)n(-c2cccc(Cn3cc(COC(=O)c4cccc([N+](=O)[O-])c4)nn3)c2)n1 [Compound 4, (1‐(3‐(3,5‐Dimethyl‐1H‐pyrazol‐1‐yl)benzyl)‐1H‐1,2,3‐triazol‐4‐yl)methyl 3‐nitrobenzoate]			not able to bind	not able to bind; also recorded: No binding	
Nc1ccc(C(=O)OCc2cn(Cc3ccc4ccccc4n3)nn2)cc1Br [Compound 7, (1‐(Quinolin‐2‐ylmethyl)‐1H‐1,2,3‐triazol‐4‐yl)methyl 4‐amino‐3‐bromobenzoate]	11.4 ± 2.43 µM	6.32 ± 0.12 µM			
CCOC(=O)CN1C(=O)S/C(=C\c2ccc(O)c(O)c2)C1=O [LK4, (Z)‐ethyl 2‐(5‐(3,4‐dihydroxybenzylidene)‐2,4‐dioxothiazolidin‐3‐yl)acetate]					> 50 µM

Further lines, with some results ahead:

Kd [1]	Kd [2]	BAG3–BD KD ± SD [2]	Compound	BAG3 FULL KD ± SD [1]	IC50 [3]
12.5 ± 2.26 µM	8.27 ± 0.98 µM		O=C(OCc1cn(Cc2ccc3ccccc3n2)nn1)c1cccc([N+](=O)[O-])c1 [Compound 5, (1‐(Quinolin‐2‐ylmethyl)‐1H‐1,2,3‐triazol‐4‐yl)methyl 3‐nitrobenzoate]		
3.31 ± 0.18 µM	1.87 ± 0.03 µM	low micromolar range	O=C(OCc1cn(COCc2ccccc2)nn1)c1cccc([N+](=O)[O-])c1 [Compound 1, (1‐((Benzyloxy)methyl)‐1H‐1,2,3‐triazol‐4‐yl)methyl 3‐nitrobenzoate]	low micromolar range	
12.6 ± 1.2 µM	2.43 ± 0.09 µM		O=C(OCc1cn(Cc2ccc3ccccc3n2)nn1)c1ccccc1I [Compound 8, (1‐(Quinolin‐2‐ylmethyl)‐1H‐1,2,3‐triazol‐4‐yl)methyl 2‐iodobenzoate]		
		not able to bind	O=C(OCc1cn(Cc2cccc3ccccc23)nn1)c1cccc([N+](=O)[O-])c1 [Compound 3, (1‐(Naphthalen‐1‐ylmethyl)‐1H‐1,2,3‐triazol‐4‐yl)methyl 3‐nitrobenzoate]	not able to bind; also recorded: No binding	
